IC50 data for 26 compounds are collected here from patent publication US10183009B2, “Therapeutic compounds and uses thereof” (GENENTECH, INC., priority 2014, dated 2019).

Chain of BRD9 (Q9H8M2 134-239 limits assumed): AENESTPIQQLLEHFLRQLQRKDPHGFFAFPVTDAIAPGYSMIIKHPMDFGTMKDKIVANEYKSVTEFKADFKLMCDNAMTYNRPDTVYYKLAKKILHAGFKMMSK

This experiment concerns the target BRD9 (Homo sapiens (Human), UniProt Q9H8M2). Kind of experiment: BRD9 AlphaLisa Binding Assay. As for the experimental part:
After 20 minutes incubation at room temperature AlphaLisa Streptavidin Acceptor Beads (Perkin-A[…]) and AlphaLisa Nickel donor beads (Perkin AS 10 ID) were added to a final concentration of 15 ug/mL each.
(In general: Alpha assays give light when donor and acceptor beads are brought close together.)
As usually defined, the IC50 is the concentration needed to halve the response being measured. Low readings indicate greater potency in that assay, high ones weaker potency in that assay. The compound `CC(C)CCn1cc(-c2cccc(C(=O)N(C)C)c2)c2cc[nH]c2c1=O` [Example 10, 3-(6-isopentyl-7-oxo-1H-pyrrolo[2,3-c]pyridin-4-yl)-N,N-dimethyl-benzamide] had an IC50 of 320 nM. Regarding `C/C=C/Cn1cc(-c2cc(F)cc(C(=O)N(C)C)c2)c2cc[nH]c2c1=O` [Example 19, 3-[6-[(E)-but-2-enyl]-7-oxo-1H-pyrrolo[2,3-c]pyridin-4-yl]-5-fluoro-N,N-dimethyl-benzamide], the IC50 was determined as 94 nM.

Compound `C/C=C/Cn1cc(-c2ccc(C(=O)NC)cc2)c2cc[nH]c2c1=O` [Example 24, 4-[6-[(E)-but-2-enyl]-7-oxo-1H-pyrrolo[2,3-c]pyridin-4-yl]-N-methyl-benzamide] showed an IC50 of 29 nM. In turn, `C/C=C/Cn1cc(-c2cccc(C(N)=O)c2)c2cc[nH]c2c1=O` [Example 30, 3-[6-[(E)-but-2-enyl]-7-oxo-1H-pyrrolo[2,3-c]pyridin-4-yl]benzamide] registered an IC50 of 510 nM. In turn, `C/C=C/Cn1cc(-c2ccc(NS(C)(=O)=O)cc2)c2cc[nH]c2c1=O` [Example 34, N-[4-[6-[(E)-but-2-enyl]-7-oxo-1H-pyrrolo[2,3-c]pyridin-4-yl]phenyl]methanesulfonamide] had an IC50 of 22 nM. This IC50 lies about 23-fold lower than the previous one. The compound `C/C=C/Cn1cc(-c2cc(C(=O)N(C)C)ccc2F)c2cc[nH]c2c1=O` [Example 41, 3-[6-[(E)-but-2-enyl]-7-oxo-1H-pyrrolo[2,3-c]pyridin-4-yl]-4-fluoro-N,N-dimethyl-benzamide] displayed an IC50 of 130 nM. `C/C=C/Cn1cc(-c2cccc(C(=O)N(C)C)c2F)c2cc[nH]c2c1=O` [Example 42, 3-[6-[(E)-but-2-enyl]-7-oxo-1H-pyrrolo[2,3-c]pyridin-4-yl]-fluoro-N,N-dimethyl-benzamide] displayed an IC50 of 82 nM. Next, `C/C=C/Cn1cc(-c2ccc(C(=O)N3CCOCC3)c(Cl)c2)c2cc[nH]c2c1=O` [Example 51, 6-[(E)-but-2-enyl]-4-[3-chloro-4-(morpholine-4-carbonyl)phenyl]-1H-pyrrolo[2,3-c]pyridin-7-one]: 13 nM; `C/C=C/Cn1cc(-c2ccc(C(=O)N3CCCC3)c(Cl)c2)c2cc[nH]c2c1=O` [Example 52, 6-[(E)-but-2-enyl]-4-[3-chloro-4-(pyrrolidine-1-carbonyl)phenyl]-1H-pyrrolo[2,3-c]pyridin-7-one]: 46 nM; `C/C=C/Cn1cc(-c2cc(C(=O)N(C)C)ccc2OC)c2cc[nH]c2c1=O` [Example 64, 3-[6-[(E)-but-2-enyl]-7-oxo-1H-pyrrolo[2,3-c]pyridin-4-yl]-4-methoxy-N,N-dimethyl-benzamide]: 56 nM. Consider `C/C=C/Cn1cc(-c2cc(C(=O)NC)ccc2OC)c2cc[nH]c2c1=O` [Example 67, 3-[6-[(E)-but-2-enyl]-7-oxo-1H-pyrrolo[2,3-c]pyridin-4-yl]-4-methoxy-N-methyl-benzamide], for which the IC50 came to 35 nM. Under `C/C=C/Cn1cc(-c2cc(C(=O)N3CCCC3)ccc2OC)c2cc[nH]c2c1=O` [Example 68, 6-[(E)-but-2-enyl]-4-[2-methoxy-5-(pyrrolidine-1-carbonyl)phenyl]-1H-pyrrolo[2,3-c]pyridin-7-one] stands 39 nM. `C/C=C/Cn1cc(-c2cc(C(=O)NCC(C)C)ccc2OC)c2cc[nH]c2c1=O` [Example 70, 3-[6-[(E)-but-2-enyl]-7-oxo-1H-pyrrolo[2,3-c]pyridin-4-yl]-N-isobutyl-4-methoxy-benzamide] yielded an IC50 of 28 nM. In the case of `C/C=C/Cn1cc(-c2cc(C(=O)NCCN(C)C)ccc2OC)c2cc[nH]c2c1=O` [Example 72, 3-[6-[(E)-but-2-enyl]-7-oxo-1H-pyrrolo[2,3-c]pyridin-4-yl]-N-[2-(dimethylamino)ethyl]-4-methoxy-benzamide], the 50% inhibitory concentration (IC50) is 23 nM. `C/C=C/Cn1cc(-c2cc(C(=O)NCCO)ccc2OC)c2cc[nH]c2c1=O` [Example 73, 3-[6-[(E)-but-2-enyl]-7-oxo-1H-pyrrolo[2,3-c]pyridin-4-yl]-N-(2-hydroxyethyl)-4-methoxy-benzamide] gave an IC50 of 35 nM. Against the preceding compound, the IC50 is about 1.5-fold higher. Compound `C/C=C/Cn1cc(-c2cc(C(=O)NCCC)ccc2OC)c2cc[nH]c2c1=O` [Example 74, 3-[6-[(E)-but-2-enyl]-7-oxo-1H-pyrrolo[2,3-c]pyridin-4-yl]-4-methoxy-N-propyl-benzamide] came in with an IC50 of 27 nM. The compound `CCCCn1cc(-c2cc(C(=O)N3CC4(CN(C(C)=O)C4)C3)ccc2OC)c2cc[nH]c2c1=O` [Example 78, 4-[5-(2-acetyl-2,6-diazaspiro[3.3]heptane-6-carbonyl)-2-methoxy-phenyl]-6-butyl-1H-pyrrolo[2,3-c]pyridin-7-one] gave an IC50 of 65 nM. `CCCCn1cc(-c2ccc(C(C)(C)O)cc2OC)c2cc[nH]c2c1=O` [Example 80, 6-butyl-4-[4-(1-hydroxy-1-methyl-ethyl)-2-methoxy-phenyl]-1H-pyrrolo[2,3-c]pyridin-7-one] yielded an IC50 of 73 nM. The IC50 values of the last two compounds are within 1.5-fold of each other. Compound `CCCCn1cc(-c2ccc(C(C)(C)O)cc2)c2cc[nH]c2c1=O` [Example 82, 6-butyl-4-[4-(1-hydroxy-1-methyl-ethyl)phenyl]-1H-pyrrolo[2,3-c]pyridin-7-one] yielded an IC50 of 43 nM. Compound `CCCCn1cc(-c2cc(C(=O)N(C)C)ccc2OC)c2cc(C)[nH]c2c1=O` [Example 87, 3-(6-butyl-2-methyl-7-oxo-1H-pyrrolo[2,3-c]pyridin-4-yl)-4-methoxy-N,N-dimethyl-benzamide] came in with an IC50 of 66 nM. As for `COc1ccc(C(=O)N(C)C)cc1-c1cn(CCC2CC2)c(=O)c2[nH]c(C)cc12` [Example 88, 3-[6-(2-cyclopropylethyl)-2-methyl-7-oxo-1H-pyrrolo[2,3-c]pyridin-4-yl]-4-methoxy-N,N-dimethyl-benzamide], the 50% inhibitory concentration (IC50) was 300 nM.

In the case of `C/C=C/Cn1cc(-c2ccc(C(=O)N3CCCC3)cc2)c2cc(C)[nH]c2c1=O` [Example 91, 6-[(E)-but-2-enyl]-2-methyl-4-[4-(pyrrolidine-1-carbonyl)phenyl]-1H-pyrrolo[2,3-c]pyridin-7-one], the IC50 was 13 nM. The compound `C/C=C/Cn1cc(-c2ccc(C(=O)N3CCCC3)c(Cl)c2)c2cc(C)[nH]c2c1=O` [Example 92, 6-[(E)-but-2-enyl]-4-[3-chloro-4-(pyrrolidine-1-carbonyl)phenyl]-2-methyl-1H-pyrrolo[2,3-c]pyridin-7-one] had an IC50 of 10 nM. The IC50 values of the last two compounds are within 1.5-fold of each other.

Take `C/C=C/Cn1cc(-c2ccc(C(=O)N3CCOCC3)c(F)c2F)c2cc(C)[nH]c2c1=O` [Example 93, 6-[(E)-but-2-enyl]-4-[2,3-difluoro-4-(morpholine-4-carbonyl)phenyl]-2-methyl-1H-pyrrolo[2,3-c]pyridin-7-one]: the IC50 came out at 34 nM. Compared with the last compound, the IC50 is about 3.4-fold higher. As for `C/C=C/Cn1cc(-c2cnc(C(=O)N3CCOCC3)c(Cl)c2)c2cc(C)[nH]c2c1=O` [Example 98, 6-[(E)-but-2-enyl]-4-[5-chloro-6-(morpholine-4-carbonyl)-3-pyridyl]-2-methyl-1H-pyrrolo[2,3-c]pyridin-7-one], the IC50 came to 32 nM. This IC50 and that of the compound before are within 1.5-fold of each other. Next, `C/C=C/Cn1cc(-c2ccc(C(=O)N3CCN(C)CC3)c(Cl)c2)c2cc(C)[nH]c2c1=O` [Example 99, 6-[(E)-but-2-enyl]-4-[3-chloro-4-(4-methylpiperazine-1-carbonyl)phenyl]-2-methyl-1H-pyrrolo[2,3-c]pyridin-7-one]: 9 nM.
